Source: patent US20130190268A1, “BIOTINYLATED POLYSACCHARIDES HAVING AN ANTITHROMBOTIC ACTIVITY AND IMPROVED METABOLIC STABILITY” (SANOFI, priority 2010, published 2013)
Where a name gives a salt, the structure may show the parent alone.

Key:
[1] = target: coagulation factor Xa, in the presence of antithrombin (Homo sapiens, UniProt P01008); test: Antithrombin-dependent anti-factor Xa activity (in vitro inhibition of coagulation factor Xa); type: biochemical; details: read-out: IC50 (dose enabling 50% inhibition), anti-Xa activity (converted)
coagulation factor Xa, in the presence of antithrombin, sequence (P01008 33-464): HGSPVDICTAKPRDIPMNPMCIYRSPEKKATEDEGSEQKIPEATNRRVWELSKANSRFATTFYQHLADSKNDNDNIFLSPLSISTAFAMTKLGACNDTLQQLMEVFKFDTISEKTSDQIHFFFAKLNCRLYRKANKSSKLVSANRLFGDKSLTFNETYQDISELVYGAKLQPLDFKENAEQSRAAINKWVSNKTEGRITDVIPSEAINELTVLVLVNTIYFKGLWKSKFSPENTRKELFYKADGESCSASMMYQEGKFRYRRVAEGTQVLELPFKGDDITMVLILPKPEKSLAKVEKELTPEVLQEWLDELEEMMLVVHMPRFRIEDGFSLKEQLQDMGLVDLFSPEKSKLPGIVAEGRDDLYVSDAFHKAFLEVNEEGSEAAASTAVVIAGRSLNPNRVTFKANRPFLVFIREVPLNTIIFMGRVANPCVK
Excerpt: The activity of the compounds according to the invention was studied in an in vitro model of inhibition of coagulation factor Xa, in the presence of antithrombin (antithrombin-dependent anti-factor Xa activity), as described by J.-M. Herbert et al., Blood, 1998, 91, 4197-4205.

[2] = target: avidin (Gallus gallus, UniProt P02701); test: Neutralization with avidin: avidin-coated beads, centrifugation, anti-factor Xa activity assayed in supernatant; type: binding; details: after centrifugation
avidin, sequence (P02701 25-152, species assumed): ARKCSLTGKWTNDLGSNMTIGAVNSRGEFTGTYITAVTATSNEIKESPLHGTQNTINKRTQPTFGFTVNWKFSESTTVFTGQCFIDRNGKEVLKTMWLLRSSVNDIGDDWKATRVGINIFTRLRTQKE
Method: The resulting mixture is centrifuged and the anti-factor Xa activity is assayed in the supernatant.

[3] = target: T1, biotinidase (Homo sapiens, UniProt P43251); test: Metabolic stability in human plasma medium at pH 6.0 with respect to biotinidase activity; type: in vitro ADME; details: pooled human plasma, pH 6.0, 1 μM, 37° C., LC/MS-MS
T1 construct: Ten individual batches of human plasma originating from 5 men and 5 women; from tissue; host or cells: pooled human plasma (5 men, 5 women), sodium citrate
T1 sequence (P43251 22-523): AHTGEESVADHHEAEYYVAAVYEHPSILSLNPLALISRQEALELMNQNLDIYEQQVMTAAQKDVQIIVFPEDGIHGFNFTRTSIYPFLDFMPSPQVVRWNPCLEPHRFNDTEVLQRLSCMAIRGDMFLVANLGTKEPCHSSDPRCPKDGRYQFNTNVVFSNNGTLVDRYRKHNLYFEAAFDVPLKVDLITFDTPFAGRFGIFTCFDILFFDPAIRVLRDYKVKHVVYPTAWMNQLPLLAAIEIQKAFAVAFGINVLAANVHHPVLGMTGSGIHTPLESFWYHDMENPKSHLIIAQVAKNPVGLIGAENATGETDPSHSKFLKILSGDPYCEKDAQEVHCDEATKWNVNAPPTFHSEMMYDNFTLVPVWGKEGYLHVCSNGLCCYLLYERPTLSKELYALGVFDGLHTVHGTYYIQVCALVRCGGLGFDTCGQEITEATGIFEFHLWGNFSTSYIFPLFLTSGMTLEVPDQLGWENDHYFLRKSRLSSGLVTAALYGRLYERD
Method: The metabolic stability of the compounds according to the invention with respect to biotinidase activity was studied on human plasma having been sampled on sodium citrate as anticoagulant. Ten individual batches of human plasma originating from 5 men and 5 women, constituting the evaluation matrix, were used and pooled in order to evaluate the metabolic stability of the compounds. The human plasma was incubated under the following conditions: • incubation medium (freshly prepared): 740 μl of 54 mM of sodium phosphate buffer, pH 6.0, containing 1.08 mM of disodium EDTA and 4.3 mM of cysteamine hydrochloride, • human plasma: 40 μl • concentrations of the compounds to be studied: 1 μM • incubation time: 24 hours • incubation temperature: 37° C.
The reaction is initiated by adding the compound to be studied, after a 10-minute period of preincubation of the plasma and of the incubation medium. At the end of the incubation period (24 hours), the reaction is stopped.
The compounds according to the invention are quantified according to a specific LC/MS-MS method.
The metabolization of each compound studied is measured by monitoring the disappearance of the unchanged product, the concentrations being determined for each incubation sample at time 0 hours and at time 24 hours, and the percentage metabolization being calculated according to the following formula: […]
The terms [compound at T 24H] and [compound at T 0H] correspond to the concentration of the compound to be studied in the reactive medium after 24 hours and before the beginning of the reaction, respectively.

Structure (SMILES)	IC50 [1] [nM]	anti-factor Xa activity in the supernatant ([2]; 0.00005 μg product/μg avidin) [%]	anti-factor Xa activity in the supernatant ([2]; 0.0001 μg product/μg avidin) [%]	anti-factor Xa activity in the supernatant ([2]; 0.001 μg product/μg avidin) [%]	anti-factor Xa activity in the supernatant ([2]; 0.01 μg product/μg avidin)	metabolization percentage (compound metabolized after 24 h) [3] [%]
COC1OC(COS(=O)(=O)O)C(OC2OC(C(=O)O)C(OC3OC(COS(=O)(=O)O)C(OC4OC(C(=O)O)C(OC5OC(COS(=O)(=O)O)C(OC)C(OC)C5NC(=O)CCCCCNC(=O)CCCCC5SCC6NC(=O)NC65)C(OC)C4OC)C(OS(=O)(=O)O)C3OS(=O)(=O)O)C(OC)C2OC)C(OS(=O)(=O)O)C1OS(=O)(=O)O (stereo not drawn) [Idrabiotaparinux, idrabiotaparinux, reference compound]	9.49	1.2 ± 0.0	2.5 ± 1.1	2.6 ± 0.3	5.2 ± 3.4%	15.9
COC1OC(COS(=O)(=O)O)C(OC2OC(C(=O)O)C(OC3OC(COS(=O)(=O)O)C(OC4OC(C(=O)O)C(OC5OC(COS(=O)(=O)O)C(OC)C(OC)C5NC(=O)CCCCCN(C)CCCCCC5SCC6NC(=O)NC65)C(OC)C4OC)C(OS(=O)(=O)O)C3OS(=O)(=O)O)C(OC)C2OC)C(OS(=O)(=O)O)C1OS(=O)(=O)O [Compound 2, Methyl (2-deoxy-3,4-di-O-methyl-2-{[6-(methyl{5-[(3aS,4S,6aR)-2-oxohexahydro-1H-thieno[3,4-d]imidazol-4-yl]pentyl}amino)hexanoyl]amino}-6-O-sulfonato-α-D-glucopyranosyl)-(1→4)-(2,3-di-O-methyl-β-D-glucopyranosyluronate)-(1→4)-(2,3,6-tri-O-sulfonato-α-D-glucopyranosyl)-(1→4)-(2,3-di-O-methyl-α-L-idopyranosyluronate)-(1→4)-2,3,6-tri-O-sulfonato-α-D-glucopyranoside, sodium salt]	9.93	4.9 ± 1.4	3.0 ± 0.7	5.2 ± 0.5	4.1 ± 0.2%	−3.3
COC1OC(COS(=O)(=O)O)C(OC2OC(C(=O)O)C(OC3OC(COS(=O)(=O)O)C(OC4OC(C(=O)O)C(OC5OC(COS(=O)(=O)O)C(OC)C(OC)C5NC(=O)CCCCNC(=O)NCCCCC5SCC6NC(=O)NC65)C(OC)C4OC)C(OS(=O)(=O)O)C3OS(=O)(=O)O)C(OC)C2OC)C(OS(=O)(=O)O)C1OS(=O)(=O)O [Compound 4, Methyl (2-deoxy-3,4-di-O-methyl-2-({5-[({4-[(3aS,4S,6aR)-2-oxohexahydro-1H-thieno[3,4-d]imidazol-4-yl]butyl}carbamoyl)amino]pentanoyl}amino)-6-O-sulfonato-α-D-glucopyranosyl)-(1→4)-(2,3-di-O-methyl-β-D-glucopyranosyluronate)-(1→4)-(2,3,6-tri-O-sulfonato-α-D-glucopyranosyl)-(1→4)-(2,3-di-O-methyl-α-L-idopyranosyluronate)-(1→4)-2,3,6-tri-O-sulfonato-α-D-glucopyranoside, sodium salt]	9.22	3.6 ± 1.2	2.5 ± 2.3	4.5 ± 0.8	2.4 ± 0.0%	5.3
COC1OC(COS(=O)(=O)O)C(OC2OC(C(=O)O)C(OC3OC(COS(=O)(=O)O)C(OC4OC(C(=O)O)C(OC5OC(COS(=O)(=O)O)C(OC)C(OC)C5NC(=O)CCCCCN(C)C(=O)CCCCC5SCC6NC(=O)NC65)C(OC)C4OC)C(OS(=O)(=O)O)C3OS(=O)(=O)O)C(OC)C2OC)C(OS(=O)(=O)O)C1OS(=O)(=O)O [Compound 3, Methyl (2-deoxy-3,4-di-O-methyl-2-{[6-(methyl{5-[(3aS,4S,6aR)-2-oxohexahydro-1H-thieno[3,4-d]imidazol-4-yl]pentanoyl}amino)hexanoyl]amino}-6-O-sulfonato-α-D-glucopyranosyl)-(1→4)-(2,3-di-O-methyl-β-D-glucopyranosyluronate)-(1→4)-(2,3,6-tri-O-sulfonato-α-D-glucopyranosyl)-(1→4)-(2,3-di-O-methyl-α-L-idopyranosyluronate)-(1→4)-2,3,6-tri-O-sulfonato-α-D-glucopyranoside, sodium salt]	9.53	0.7 ± 2.4	1.2 ± 0.6	1.8 ± 0.2	0.9%^(1)	0.8
COC1OC(COS(=O)(=O)O)C(OC2OC(C(=O)O)C(OC3OC(COS(=O)(=O)O)C(OC4OC(C(=O)O)C(OC5OC(COS(=O)(=O)O)C(OC)C(OC)C5NC(=O)CCCCCOCCCCCC5SCC6NC(=O)NC65)C(OC)C4OC)C(OS(=O)(=O)O)C3OS(=O)(=O)O)C(OC)C2OC)C(OS(=O)(=O)O)C1OS(=O)(=O)O [Compound 1, Methyl (2-deoxy-3,4-di-O-methyl-2-{[6-({5-[(3aS,4S,6aR)-2-oxohexahydro-1H-thieno[3,4-d]imidazol-4-yl]pentyl}oxy)hexanoyl]amino}-6-O-sulfonato-α-D-glucopyranosyl)-(1→4)-(2,3-di-O-methyl-β-D-glucopyranosyluronate)-(1→4)-(2,3,6-tri-O-sulfonato-α-D-glucopyranosyl)-(1→4)-(2,3-di-O-methyl-α-L-idopyranosyluronate)-(1→4)-2,3,6-tri-O-sulfonato-α-D-glucopyranoside, sodium salt]	10	1.3 ± 0.9	5.6 ± 1.0	6.0 ± 0.2	6.8 ± 2.0%	1.7
